Where two headings read alike, the source gives them in different places.
Key:
E. coli Efflux Del = assay: microbe, parasite or virus in culture; format: cell-based; details: Escherichia coli, read-out: MIC E. coli Efflux Del
Procedure: (§1) Synthesized compounds were prepared as 10 mM DMSO solutions and tested in a final concentration range of 100–0.2 µM [34].
(§2) Broth microdilution testing was performed according to CLSI (Clinical Laboratory Standards Institute) guidelines. MIC (minimal inhibitory concentration) values were defined as the last tested concentration of the compound at which there was no visible growth of bacteria. Inoculums for each microorganism were prepared using the direct colony suspension method, where broth solutions that achieved turbidity equivalent to 0.5 McFarland standard were additionally diluted 100× with Ca-adjusted MH media (Becton Dickinson).

[1] = system: HL-60 acute myeloid leukemia cells; assay: In vitro antiproliferative activity, MTS proliferation assay; format: cell-based; details: Homo sapiens, 72 h
Procedure: (§3) Culture media were purchased from Gibco Life Technologies, USA, and supplemented with 10% fetal bovine serum (HyClone, GE Healthcare Life Sciences, Chicago, IL, USA), except for the media for SW620, PC3 and HeLa cells, which were purchased from Sigma.
(§4) Cells were incubated for 72 h with compounds and were then analyzed using the CellTiter 96® AQueous One Solution Cell Proliferation Assay (MTS) reagent (Promega) according to the manufacturer’s instructions. […] Compounds were tested in two independent experiments. SW620, PC3 and HeLa cells were seeded in 96-well microtiter plates at 1 × 10^4 to 3 × 10^4 cells/mL, depending on the doubling times of the specific cell line. Test agents were then added in five 10-fold dilutions (10^−8 to 10^−4 M). Working dilutions were freshly prepared on the day of testing. After 72 h of incubation, the cell growth rate was evaluated using the MTT assay as described previously. […] Each test was performed in quadruplicate in at least two individual experiments.

[2] = system: Capan-1 pancreatic adenocarcinoma cells; assay: as above; format: cell-based; details: Homo sapiens, 72 h
Procedure: as §3, §4

[3] = system: DND-41 acute lymphoblastic leukemia cells; assay: as above; format: cell-based; details: Homo sapiens, DND41, 72 h
Procedure: as §3, §4

in vitro [4] = details: dog
in vitro [5] = assay: in vitro
[6] = system: Z-138 non-Hodgkin lymphoma cells; assay: In vitro antiproliferative activity, MTS proliferation assay; format: cell-based, human
From the text: (§5) Human cancer cell lines used in this manuscript, namely Capan-1, HCT-116, NCI-H460, LN-229, HL-60, K-562, Z-138, SW620, PC3 and HeLa, were acquired from the American Type Culture Collection (ATCC, Manassas, VA, USA), while the DND-41 cell line was purchased from the Deutsche Sammlung von Mikroorganismen und Zellkulturen (DSMZ Leibniz-Institut, Germany). Culture media were purchased from Gibco Life Technologies, USA, and supplemented with 10% fetal bovine serum (HyClone, GE Healthcare Life Sciences, Chicago, IL, USA), except for the media for SW620, PC3 and HeLa cells, which were purchased from Sigma.
(§6) Adherent cell lines LN-229, HCT-116, NCI-H460 and Capan-1 cells were seeded at a density between 500 and 1500 cells per well in 384-well tissue culture plates (Greiner). […]. Cells were incubated for 72 h with compounds and were then analyzed using the CellTiter 96® AQueous One Solution Cell Proliferation Assay (MTS) reagent (Promega) according to the manufacturer’s instructions. Absorbance of the samples was measured at 490 nm using a SpectraMax Plus 384 (Molecular Devices), and OD values were used to calculate the 50% inhibitory concentration (IC50). Compounds were tested in two independent experiments. SW620, PC3 and HeLa cells were seeded in 96-well microtiter plates at 1 × 10^4 to 3 × 10^4 cells/mL, depending on the doubling times of the specific cell line. Test agents were then added in five 10-fold dilutions (10^−8 to 10^−4 M). Working dilutions were freshly prepared on the day of testing. After 72 h of incubation, the cell growth rate was evaluated using the MTT assay as described previously. Absorbance of the samples was measured at 570 nm, and OD values were used to calculate the 50% inhibitory concentration (IC50). Each test was performed in quadruplicate in at least two individual experiments.

S. aureus ATCC 29213 = assay: Antibacterial activity in vitro, broth microdilution; format: cell-based; details: Staphylococcus aureus, ATCC29213; broth microdilution (CLSI), 16–24 h at 37 °C
Procedure: as §1, §2

S. Pneumoniae ATCC 49619 = assay: as above; format: cell-based; details: Streptococcus pneumoniae, ATCC49619; broth microdilution (CLSI), 16–24 h at 37 °C
Procedure: as §1, §2

E. coli ATCC 25922 = assay: as above; format: cell-based; details: Escherichia coli, ATCC25922; broth microdilution (CLSI), 16–24 h at 37 °C
Procedure: as §1, §2

[7] = system: NCI-H460 lung carcinoma cells; assay: In vitro antiproliferative activity, MTS proliferation assay; format: cell-based; details: Homo sapiens, 72 h
From the text: as §5, §6

[8] = system: LN-229 glioblastoma cells; assay: as above; format: cell-based; details: Homo sapiens, 72 h
From the text: as §5, §6

[9] = system: HCT-116 colorectal carcinoma cells; assay: as above; format: cell-based; details: Homo sapiens, 72 h
From the text: as §5, §6

[10] = system: K-562 chronic myeloid leukemia cells; assay: as above; format: cell-based; details: Homo sapiens, K562, 72 h
From the text: as §5, §6

[11] = system: HeLa cervical carcinoma cells; assay: In vitro antiproliferative activity, MTT assay; format: cell-based; details: Homo sapiens, 72 h
From the text: as §5, §6

[12] = system: PC3 prostate carcinoma cells; assay: In vitro antiproliferative activity, MTT assay; format: cell-based; details: Homo sapiens, 72 h
From the text: as §5, §6

[13] = system: SW620 colon carcinoma cells; assay: In vitro antiproliferative activity, MTT assay; format: cell-based; details: Homo sapiens, SW-620, 72 h
From the text: as §5, §6

in vitro [14] = details: human
in vitro [15] = details: human; remark: listed apart in the source
[16] = system: panel of cancer cell lines (LN-229, Capan-1, HCT-116, NCI-H460, DND-41, HL-60, K-562, Z-138); assay: In vitro antiproliferative activity, whole panel of Table 1 (MTS); format: cell-based; details: Homo sapiens, range over eight cell lines, 72 h, read-out: IC50 values ranging over the panel of cancer cell lines of Table 1
From the text: as §5
Adherent cell lines LN-229, HCT-116, NCI-H460 and Capan-1 cells were seeded at a density between 500 and 1500 cells per well in 384-well tissue culture plates (Greiner). […]. Cells were incubated for 72 h with compounds and were then analyzed using the CellTiter 96® AQueous One Solution Cell Proliferation Assay (MTS) reagent (Promega) according to the manufacturer’s instructions. Absorbance of the samples was measured at 490 nm using a SpectraMax Plus 384 (Molecular Devices), and OD values were used to calculate the 50% inhibitory concentration (IC50). Compounds were tested in two independent experiments. […] After 72 h of incubation, the cell growth rate was evaluated using the MTT assay as described previously. […]

Sindbis = assay: Antiviral CPE reduction assay; format: cell-based; details: Sindbis virus, Huh-7, Huh7 cells
HSV-1 KOS = assay: Antiviral CPE reduction assay; format: cell-based, herpes simplex virus-1; details: Human alphaherpesvirus 1
HCoV NL63 = assay: Antiviral CPE reduction assay; format: cell-based; details: Human coronavirus NL63, Huh-7, Huh7 cells
HCoV OC43 = assay: Antiviral CPE reduction assay; format: cell-based, human coronavirus OC43; details: Betacoronavirus 1, OC43, HEL 299 cells
Zika mr766 = assay: Antiviral CPE reduction assay; format: cell-based; details: Zika virus, Huh-7, Huh7 cells
YFV 17D = assay: microbe, parasite or virus in culture; format: cell-based; details: Yellow fever virus, Huh-7, read-out: EC50 YFV 17D Huh7
[17] = system: Influenza H3N2 (A/HK/7/87); assay: Antiviral CPE reduction assay; format: cell-based; details: Influenza A virus, MDCK cells
HCoV 229E = assay: Antiviral CPE reduction assay; format: cell-based; details: Human coronavirus 229E, HEL 299 cells
[18] = system: Influenza B (B/Ned/537/05); assay: Antiviral CPE reduction assay; format: cell-based; details: Influenza B virus, MDCK cells
RSV A Long = assay: Antiviral CPE reduction assay; format: cell-based, respiratory syncytial virus A; details: HEL 299 cells
[19] = system: Influenza H1N1 (A/Ned/378/05); assay: Antiviral CPE reduction assay; format: cell-based; details: Influenza A virus, MDCK cells

| Compound | melting point [°C] | MIC (E. coli Efflux Del) [µM] | IC50 [1] [µM] | IC50 [2] [µM] | IC50 [3] [µM] | CC50 (in vitro [4]) [µM] | CC50 (in vitro [5]) [µM] | IC50 ([6]; Homo sapiens, Z-138, 72 h) [µM] | MIC (S. aureus ATCC 29213) [µM] | MIC (S. Pneumoniae ATCC 49619) [µM] | MIC (E. coli ATCC 25922) [µM] | IC50 [7] [µM] | IC50 [8] [µM] | IC50 [9] [µM] | IC50 [10] [µM] | IC50 [11] [µM] | IC50 [12] [µM] | IC50 [13] [µM] | CC50 (in vitro [14]) [µM] | CC50 (in vitro [15]) [µM] | also measured |
| --- | --- | --- | --- | --- | --- | --- | --- | --- | --- | --- | --- | --- | --- | --- | --- | --- | --- | --- | --- | --- | --- |
| c1ccc(-c2nc3ncccc3[nH]2)cc1 [Compound 5, 2-Phenyl-1H-imidazo[4:5-b]pyridine] | 290 to 291 | > 64 | 81.7 ± 26 | 98 ± 2.9 | > 100 | 79.2 ± 29.4 | > 30 | > 100 | > 64 | > 64 | > 64 | > 100 | > 100 | > 100 | > 100 | 13.6 ± 3.4 | > 100 | > 100 |  |  |  |
| Cl.c1cnc2nc(-c3ccc(C4=NCCN4)cc3)[nH]c2c1 [Compound 11, 2-(4-(4,5-Dihydro-1H-imidazol-2-yl)phenyl)-1H-imidazo[4,5-b]pyridine Hydrochloride] | > 300 | > 64 | > 100 | 74.5 ± 36.1 | 48.8 ± 12.5 | > 100 | > 30 | 76.4 ± 33.4 | > 64 | > 64 | > 64 | 84.9 ± 21.4 | 81.7 ± 17.4 | > 100 | > 100 | 11.1 ± 3.5 | ≥ 100 | 12.1 ± 3.7 |  |  |  |
| CC(C)NC(=N)c1ccc(-c2nc3ncccc3[nH]2)cc1.Cl [Compound 13, 4-(1H-Imidazo[4,5-b]pyridin-2-yl)-N-isopropylbenzimidamide Hydrochloride] | 293 to 295 | > 64 | > 100 | > 100 | > 100 | > 100 | > 30 | > 100 | > 64 | > 64 | > 64 | > 100 | > 100 | > 100 | > 100 | > 100 | > 100 | > 100 | 81.1 ± 26.8 | > 100 |  |
| Brc1cnc2nc(-c3ccc(C4=NCCN4)cc3)[nH]c2c1.Cl [Compound 14, 6-Bromo-2-(4-(4,5-dihydro-1H-imidazol-2-yl)phenyl)-1H-imidazo[4,5-b]pyridine Hydrochloride] | > 300 | 32 | 9.5 ± 1.3 | 9.4 ± 0.4 | 10.8 ± 0.4 | 33.9 ± 0.1 |  | 8.4 | > 64 | > 64 | > 64 | 13 ± 7.6 | 8 ± 1.8 | 13.6 ± 2.8 | 49.7 ± 3.1 | 4.3 ± 2.6 | 1.5 ± 0.5 | 0.7 ± 0.3 |  |  | IC50 [16]: 8 to 49.7 µM; IC50 ([6]; 72 h): 8.5 ± 2 µM |
| Brc1cnc2nc(-c3ccc(C4=NCCCN4)cc3)[nH]c2c1.Cl [Compound 15, 6-Bromo-2-(4-(1,4,5,6-tetrahydropyrimidin-2-yl)phenyl)-1H-imidazo[4,5-b]pyridine Hydrochloride] | > 300 | > 64 | > 100 | > 100 | 17 ± 1.3 | > 100 | > 30 | 29.1 ± 16.5 | > 64 | > 64 | > 64 | > 100 | 73.5 ± 0.8 | > 100 | > 100 | 7.3 ± 0.4 | 8.6 ± 0.7 | 3.5 ± 0.2 |  |  |  |
| Cn1c(-c2ccc(C#N)cc2)nc2cccnc21 [Compound 17, 4-(3-Methyl-3H-imidazo[4,5-b]pyridin-2-yl)benzonitrile] | 183 to 185 | > 64 | > 100 | > 100 | > 100 | > 100 |  | > 100 | > 64 | > 64 | > 64 | > 100 | > 100 | > 100 | > 100 | > 100 | > 100 | > 100 | > 100 | > 100 | EC50 (Sindbis): > 100 µM; EC50 (HSV-1 KOS): > 100 µM; EC50 (HCoV NL63): > 100 µM; EC50 (HCoV OC43): > 100 µM; EC50 (Zika mr766): > 100 µM; EC50 (YFV 17D): > 100 µM; EC50 [17]: > 100 µM; EC50 (HCoV 229E): > 100 µM; EC50 [18]: > 100 µM; EC50 (RSV A Long; CPE reduction): 79 ± 29.7 µM; EC50 (RSV A Long; human respiratory syncytial virus, HEL 299, CPE reduction): 58 µM; EC50 [19]: > 100 µM |

Reference: article PMC9822021, “Biological Activity of Amidino-Substituted Imidazo [4,5-b]pyridines” (Molecules, 2022)
